Test results: patent US20050148069A1, “IGF-1 instructs multipotent adult CNS neural stem cells to an oligodendroglial lineage” (priority 2003, published 2005)

Experiments:
[1] = tested on: multipotent neural progenitor cells derived from the whole brain of P10 ICR mice; test: differentiation of whole brain-derived multipotent neural progenitor cells; type: cell-based, mouse; settings: IGF-I treatment, primary cultures (unpublished data)
Method: The neural progenitor cells isolated from the hippocampus of female Fischer 344 used in this study have been characterized previously (Gage et al., 1995; Palmer et al., 1997). The whole brain-derived neural stem cells from PIO ICR mice were isolated and cultured according to the methods as described, with slight modifications. Cells were cultured as previously described (Gage et al., 1995; Ray et al., 1993). Cells between passages 10 and 20 were used for in vitro differentiation analyses. To induce differentiation, cells were plated into 4-well chamber slides at a density of 55,000-75,000 cells per well and were allowed to proliferate in N2-supplemented (Invitrogen) DMEM:F12 (Omega Scientific) medium containing 20 ng/ml FGF-2 (PeproTech, Inc.) for 24 hours. FGF-2 was then withdrawn and cells were subsequently treated with differentiation media. […] For IGF-induction experiments, cells were trypsinized, washed with 1× PBS, and plated into insulin-free N2 medium. Either human recombinant IGF-I or IGF-II (500 ng/ml; R&D Systems) or insulin (500 ng/ml; Sigma) was added for 4 days, except when indicated otherwise. In some cultures, BrdU (2.5 μM, Sigma) was added to label dividing cells, and Q-VD-OPh (2 μM, Enzyme Systems Products) was added to prevent apoptosis.

[2] = tested on: adult hippocampus-derived neural progenitor cells; test: proliferation by BrdU incorporation; type: cell-based, rat; settings: 500 ng/ml IGF-I
Method: We next determined whether proliferation of progenitors might contribute to the observed increase in oligodendrocyte differentiation. Bromodeoxyuridine (BrdU) (2.5 μM) was added to parallel cultures for 12 hours at times 0-, 12-, 24-, and 36-h after plating, followed by fixation and quantification of total cell numbers and BrdU+ cells. We counted the progenitor cells (evidenced by a lack of RIP staining) that were labeled with BrdU at each time point. For cells grown in the absence of IGF-I, we observed a progressive decrease in the percentage of cells that were proliferating (BrdU+) during the 48-h experiments (FIG. 3B). […] This initial decrease in proliferation is most likely due to FGF-2 mitogen withdrawal. […]
(§1) Cells were fixed with 4% paraformaldehyde, followed by immunocytochemical staining as described (Palmer et al., 1999). […] Quantification of cell phenotypes was with StereoInvestigator (MicroBrightfield Inc.); for each marker, 500-1000 cells were sampled systematically from standardized fields at 40×magnification. For quantification of live/dead cells, images were taken of cultures live-stained with propidum iodide (1 μg/ml; Molecular Probes) and Hoescht 33342 (1 μg/ml; Sigma) at 10×magnification, and cells were counted using Image-Pro (Media Cybernetics). […]

[3] = tested on: adult hippocampus-derived neural progenitor cells; test: cell death by live staining with propidium iodide and Hoechst 33342; type: cell-based, rat; settings: 500 ng/ml IGF-I
Method: We first directly measured the effect of IGF-I on cell survival. We asked whether a selective decrease in the death of oligodendrocytes (and/or oligodendrocyte progenitors) could explain the net increase in number of oligodendrocytes (defined by the expression of RIP, a marker of both immature and mature oligodendrocytes). […] To quantify cell death of the progeny of neural progenitor cells, living cultures were stained with propidium iodide (1 μg/ml), which stains dead cells, and Hoechst 33342 (1 μg/ml), which stains live and dead cells. Staining of live, rather than fixed, cultures was used to avoid underestimating cell death due to possible detachment of dying and/or dead cells from culture substrates. […]
as §1

IGF-I: human recombinant IGF-I (R&D Systems), growth factor polypeptide
differentiation into oligodendrocytes [1]: exhibited a preferential differentiation into oligodendrocytes
percentage of RIP− cells that incorporated BrdU ([2]; 12-h BrdU periods up to 48 h): decreasing trend in the first three time periods
RIP+ cells positive for BrdU ([2]; after 24 hours): significant increase in RIP+ cells positive for BrdU
percentage of dead/dying cells ([3]; every 12 hours up to 48 h): relatively small percentage of dead/dying cells
change in the percentage of cells that died between time points ([3]; one-way ANOVA): no significant change
